Holding throughout (format): cell-based
Experiment [1] has as its system Staphylococcus aureus ATCC33591. In words: Broth microdilution MIC in Mueller Hinton broth. In general terms: In broth dilution the organism is exposed to a series of concentrations in liquid medium.
The test system of experiment [2] is Enterococcus faecalis ATCC29212. Put plainly: Broth microdilution MIC in Mueller Hinton broth.
In experiment [3] the test system is Staphylococcus aureus ATCC 25923. Put plainly: MIC in Dulbecco's Modified Eagle Medium (DMEM). On the procedure:
The overnight culture of Staphylococcus aureus ATCC 25923 was diluted in fresh Mueller Hinton broth (MHB) and placed in an orbital shaker incubator (Gallenkamp, Cambridge, UK) at 37 °C and 220 rpm. Once the culture reached the exponential growth phase (OD600 = 0.3–0.5), cells were centrifuged (Heraeus, Biofuge primo R, Hanau, Germany) at room temperature at a speed of 4000× g. The cell pellet was resuspended in tempered Dulbecco’s Modified Eagle Medium (DMEM) to a final concentration of 5 × 10^5 CFU/mL. Then, 50 µL of as-prepared cells were added to a 96-well plate containing twofold serial dilutions of tested compounds in DMEM medium in the range of concentrations from 125 µM to 0.12 µM. The minimum inhibitory concentration (MIC) was visually assessed the next day. The MIC was determined as the lowest concentration of the substance at which no apparent bacterial growth was seen.

Experiment [4] concerns Staphylococcus aureus Clinical/MRSA. Put plainly: Broth microdilution MIC in Mueller Hinton broth. As to conditions: for MIC: Staphylococcus aureus, MRSA, read-out: Minimum Inhibitory Concentration (MIC) Staphylococcus aureus Clinical/MRSA.
Experiment [5] relates to Escherichia coli ATTC25922. Put plainly: Broth microdilution MIC in Mueller Hinton broth.
Experiment [6] relates to Salmonella enterica food isolate. Put plainly: microbe, parasite or virus in culture. The settings on record: read-out: Minimum Inhibitory Concentration (MIC) Salmonella enterica food isolate.
Experiment [7] has as its system Bacillus cereus ATCC14579. In words: Broth microdilution MIC in Mueller Hinton broth.
Experiment [8] deals with Staphylococcus aureus ATCC 25923 biofilm. Put plainly: Biofilm inhibition assay (crystal violet). As to conditions: ATCC25923, 12.5 μg mL−1, 48 h. On the procedure:
Therefore, we investigated the antibiofilm activity of the new 3-amidoquinuclidine QACs against the biofilm-forming pathogen S. aureus ATCC 25923, which causes opportunistic infections of various tissues in humans. […] Antibiofilm activity was evaluated at four different concentrations (12.5, 25, 50, and 100 μ g mL^−1), and as shown on the crystal violet heat map (CV) (Figure 3A), all compounds have the potential to inhibit biofilm formation, albeit at different concentrations.
Minimum biofilm inhibitory concentration (MBIC) was determined against Staphylococcus aureus ATCC 25923. Compounds were dissolved in MHB and serially diluted in 96-well plates with a final mass concentration ranging from 100 to 12.5 µg/mL. The exponentially grown culture (OD600 = 0.3–0.5) of S. aureus ATCC 25923 was diluted to a final concentration of 5 × 10^6 CFU/mL. Then, 50 µL of such prepared cell culture was added to the 96-well plates containing twofold dilutions of the compound to be tested. The plates were incubated for 48 h. After incubation, the broth over the biofilm was aspirated, and the plate with the biofilm was dried at 60 °C. […] Absorbance was measured at 595 nm in an optical reader. The percentage of biofilm formed was calculated by dividing the absorbance of the well containing the tested substance by the absorbance of the untreated bacterial cells and multiplying by 100.

Experiment [9] concerns Staphylococcus aureus ATCC 25923. Put plainly: MIC in cation-adjusted Mueller Hinton broth (CA-MHB). On the procedure: A representative bacterial strain, Staphylococcus aureus ATCC 25923, was grown overnight in Mueller Hinton broth (MHB). The following day, the culture was diluted in tempered MHB and allowed to grow at 37 °C with constant shaking of 220 rpm. Once the bacterial culture reached the exponential growth phase (OD600 = 0.3–0.5), it was diluted in the cation-adjusted Mueller Hinton broth (CA-MHB) containing MgCl2 (10 mM) to the final cell count of 5 × 10^5 CFU/mL. The previously prepared 96-well plate contained twofold serial dilutions of the compounds to be tested, dissolved in CA-MHB, in the concentrations range of 125 µM to 0.12 µM. Then, 50 µL of the bacterial cells diluted in CA-MHB was pipetted in each well of the plate and incubated overnight at 37 °C with constant shaking at 220 rpm. The next day, the minimum inhibitory concentration (MIC) was determined as the lowest concentration of the compound that prevented supposed bacterial growth in the wells. Visually determined results of antibacterial activity were confirmed by the addition of 20 µL 2-(4-iodophenyl)-3-(4-nitrophenyl)-5-phenyltetrazolium chloride (INT) reagent (6 mg/mL). The MIC value of a drug in CA-MHB containing NaCl (85 mM) was determined using the same experimental technique.

Experiment [10] has as its system Listeria monocytogenes ATCC7644. Put plainly: Broth microdilution MIC in Mueller Hinton broth.
Experiment [11] has as its system Pseudomonas aeruginosa ATTC27853. Put plainly: Broth microdilution MIC in Mueller Hinton broth.
Experiment [12] concerns Staphylococcus aureus ATCC25923. In words: Broth microdilution MIC in Mueller Hinton broth.
In experiment [13] the test system is Staphylococcus aureus ATCC 25923. In words: Time-resolved growth analysis. The protocol: The growth kinetic experiments were performed to further investigate the efficacy of the selected 3-amidoquinnuclidine candidates. The candidates from series 1 (QC14-Me, QC14-Ally, QC16-Me, and QC16-Ally) and series 3 (QBn-C12, QBn-C14, and QBn-C16) were incubated at MIC and ½ MIC for 350 min with an appropriate number of CFU of Staphylococcus aureus ATCC 25923 at 37 °C with shaking. Time-resolved growth analysis was performed along with the control, in which bacterial growth was monitored without the presence of the antibacterial agent.
Time-resolved growth analysis was performed in the microtiter plate reader (Bio-Tek EL808, Winooski, VT, USA) by incubating the selected antibacterial agent with Staphylococcus aureus ATCC 25923. The exponentially grown culture (OD600 = 0.3–0.5) of S. aureus ATCC 25923 was diluted to a final concentration of 5 × 10^4 CFU/mL. Then, 50 µL of such prepared cell culture was added to the 96-well plates containing the MIC or ½ MIC of the compound to be tested. The plates were incubated at 37 °C for 350 min in the microplate reader with shaking. OD600 was recorded at 10 min intervals. The results obtained represent the mean of two independent experiments performed in triplicate.

Experiment [14] deals with Staphylococcus aureus ATCC 33591. The settings on record: MIC in MHB vs MIC with 10 µM CCCP, S. aureus ATCC 33591.
Procedure: Bacterial susceptibility toward (±)3-amidoquinuclidine quaternary ammonium compounds was evaluated in the presence of an ATP synthesis inhibitor carbonyl cyanide 3-chlorophenylhydrazone (CCCP) (Sigma Aldrich). The minimum inhibitory concentration (MIC) of CCCP against Staphylococcus aureus ATCC 33591 (MRSA) was established before the experiment. The overnight culture of Staphylococcus aureus ATCC 33591 was diluted in tempered Mueller Hinton broth (MHB) and cultivated in the orbital shaker at 37 °C and 220 rpm. When the culture reached the preexponential phase of growth (OD600 = 0.3–0.5), it was diluted to a final concentration of 5 × 10^5 CFU/mL in MHB containing 10 µM CCCP. A total of 50 µL of prepared cell suspension was pipetted into a 96-well plate containing twofold serial dilutions of tested compounds in MHB with CCCP at a final concentration of 10 µM. Plates were incubated overnight, and the MIC reduction of tested compounds in the presence of 10 µM CCCP was recorded the following day.
Setting [15] is: Staphylococcus aureus, ATCC33591, read-out: Minimum Inhibitory Concentration (MIC) Staphylococcus aureus ATCC33591.
Setting [16] is: Enterococcus faecalis, ATCC29212, read-out: Minimum Inhibitory Concentration (MIC) Enterococcus faecalis ATCC29212.
[17] abbreviates: Escherichia coli, ATTC25922, read-out: Minimum Inhibitory Concentration (MIC) Escherichia coli ATTC25922.
Where [18] appears, read: Bacillus cereus, ATCC14579, read-out: Minimum Inhibitory Concentration (MIC) Bacillus cereus ATCC14579.
The mark [19] stands for this setting: ATCC25923, read-out: MIC CA-MHB.
Where [20] appears, read: Listeria monocytogenes, ATCC7644, read-out: Minimum Inhibitory Concentration (MIC) Listeria monocytogenes ATCC7644.
Where [21] appears, read: Pseudomonas aeruginosa, ATTC27853, read-out: Minimum Inhibitory Concentration (MIC) Pseudomonas aeruginosa ATTC27853.
Setting [22] is: MHB, read-out: Minimum Inhibitory Concentration (MIC) Staphylococcus aureus ATCC25923.
The mark [23] stands for this setting: Staphylococcus aureus, ATCC25923, read-out: Minimum Inhibitory Concentration (MIC) Staphylococcus aureus ATCC25923.

By inhibition is commonly meant how much of the control response was suppressed. Low readings indicate a response near the control, high ones a response far below the control.

The structures appear in SMILES notation. Where two headings read alike, the source gives them in different places.

Consider `C=CC[N+]12CCC(CC1)C(NC(=O)CCCCCCCCCCCCCCC)C2` (centres unmarked) [QC16-Ally], for which the MIC in experiment [1] (setting [15]) was 25 µM; in [2] (setting [16]) it was greater than 100 µM; in experiment [3] (ATCC25923, read-out: MIC DMEM), 3 µM; in experiment [4] it was 31 µM; in [5] (setting [17]), greater than 100 µM; in [6] (Salmonella enterica, MHB), greater than 125 µM. The MIC is greater than 100 µM in experiment [7] (setting [18]); 15 µM in experiment [9] (setting [19]); 16 µM in experiment [10] (setting [20]); greater than 125 µM in [11] (setting [21]); 15 µM in experiment [12] (setting [22]); 15 µM in [12] (setting [23]). The inhibition at 12.5 µg/mL in experiment [8] is roughly 100%.
Regarding `CCCCCCCCCCCCCC(=O)NC1C[N+]2(C)CCC1CC2` (centres unmarked) [QC14-Me], the MIC was 100 µM in experiment [1] (setting [15]); 30 µM in experiment [2] (setting [16]); 12 µM in experiment [3] (ATCC25923, read-out: MIC DMEM); 60 µM in experiment [4]; 100 µM in experiment [5] (setting [17]); greater than 125 µM in experiment [6] (Salmonella enterica, MHB). For the same molecule, the MIC is 50 µM in experiment [7] (setting [18]); 40 µM in experiment [9] (setting [19]); 20 µM in experiment [10] (setting [20]); greater than 125 µM in [11] (setting [21]); 40 µM in experiment [12] (setting [22]); 40 µM in [12] (setting [23]). The “inhibition of bacterial growth at ½ MIC” value in experiment [13] is reported as “unable to inhibit bacterial growth”.
On to `CCCCCCCCCCCC[N+](C)(C)Cc1ccccc1.[Br-]` [BAB, benzyldimethyldodecylammonium bromide, reference compound], for which the MIC in [1] (MHB, read-out: Minimum Inhibitory Concentration (MIC) Staphylococcus aureus ATCC33591) amounted to 25 µM; in experiment [2] (MHB, read-out: Minimum Inhibitory Concentration (MIC) Enterococcus faecalis ATCC29212), 15 µM; in [5] (MHB, read-out: Minimum Inhibitory Concentration (MIC) Escherichia coli ATTC25922), 63 µM; in experiment [6] (MHB), 50 µM; in experiment [7] (MHB, read-out: Minimum Inhibitory Concentration (MIC) Bacillus cereus ATCC14579) it was 13 µM; in experiment [10] (MHB, read-out: Minimum Inhibitory Concentration (MIC) Listeria monocytogenes ATCC7644), 10 µM. Moreover, the MIC in [11] (MHB, read-out: Minimum Inhibitory Concentration (MIC) Pseudomonas aeruginosa ATTC27853) is greater than 125 µM; in experiment [12] (setting [22]), 10 µM. Besides, the “Minimum Inhibitory Concentration (MIC) Staphylococcus aureus Clinical/MRSA” value in experiment [4] (MHB) turned out to be 25 µM. Besides, the “Fold reduction in MIC” value in experiment [14] was found to be 32.
With `CCCCCCCCCCCCCC[N+]12CCC(CC1)C(NC(=O)c1ccccc1)C2` (centres unmarked) [QBn-C14], the MIC in experiment [1] (Staphylococcus aureus, ATCC33591, MHB, read-out: Minimum Inhibitory Concentration (MIC) Staphylococcus aureus ATCC33591) was 31 µM; in [2] (Enterococcus faecalis, ATCC29212, MHB, read-out: Minimum Inhibitory Concentration (MIC) Enterococcus faecalis ATCC29212), 8 µM; in [3] (ATCC25923, Dulbecco's Modified Eagle Medium, S. aureus ATCC 25923, read-out: MIC DMEM) it was 3 µM; in [4], 31 µM; in experiment [5] (Escherichia coli, ATTC25922, MHB, read-out: Minimum Inhibitory Concentration (MIC) Escherichia coli ATTC25922), 31 µM; in experiment [6] (Salmonella enterica), 31 µM. Further, the MIC in experiment [7] (Bacillus cereus, ATCC14579, MHB, read-out: Minimum Inhibitory Concentration (MIC) Bacillus cereus ATCC14579) was determined as 63 µM; in experiment [9] (ATCC25923, cation-adjusted MHB, S. aureus ATCC 25923, read-out: MIC CA-MHB) it was 25 µM; in experiment [10] (Listeria monocytogenes, ATCC7644, MHB, read-out: Minimum Inhibitory Concentration (MIC) Listeria monocytogenes ATCC7644), 4 µM; in [11] (Pseudomonas aeruginosa, ATTC27853, MHB, read-out: Minimum Inhibitory Concentration (MIC) Pseudomonas aeruginosa ATTC27853) it was 63 µM; in experiment [12] (setting [22]), 31 µM; in experiment [12] (Staphylococcus aureus, ATCC25923, MHB, read-out: Minimum Inhibitory Concentration (MIC) Staphylococcus aureus ATCC25923), 31 µM.
Regarding `C=CC[N+]12CCC(CC1)C(NC(=O)CCCCCCCCCCCCC)C2` (centres unmarked) [QC14-Ally], the MIC was 50 µM in [1] (setting [15]); 15 µM in [2] (setting [16]); 6 µM in [3] (ATCC25923, read-out: MIC DMEM); 25 µM in experiment [4]; 50 µM in [5] (setting [17]); greater than 125 µM in experiment [6] (Salmonella enterica, MHB). Moreover, the MIC in [7] (setting [18]) is 25 µM; in [9] (setting [19]) it was 20 µM; in experiment [10] (setting [20]), 8 µM; in experiment [11] (setting [21]), greater than 125 µM; in experiment [12] (setting [22]), 20 µM; in [12] (setting [23]), 20 µM. In addition, the inhibition at 12.5 µg/mL in experiment [8] is roughly 100%. Further, the “inhibition of bacterial growth at ½ MIC” value in [13] was “unable to inhibit bacterial growth”.

These data come from publication PMC9966435, “Synthesis and Biological Evaluation of 3-Amidoquinuclidine Quaternary Ammonium Compounds as New Soft Antibacterial Agents” (Pharmaceuticals, 2023).
